The record followed here is patent publication US9321722B2, “Bis-indolic derivatives, their uses in particular as antibacterials” (UNIVERSITE JOSEPH FOURIER, priority 2011, dated 2016).

Experiment [1] relates to S. epidermidis CIP 103627. In words: MIC microdilution (Table I-1). The class given is cell-based, Staphylococcus epidermidis. The conditions noted are these: read after 18 hours. Here is the method: (§1) The microdilution method recommended by the Clinical and Laboratory Standard Institute [M07-A8, Vol. 29, N^o 2] was used. The activity of indolic compounds was tested against 29 bacterial strains belonging to 17 different species and 12 different genera (Staphylococcus, Streptococcus, Enterococcus, Listeria, Bacillus, Haemophilus, Escherichia, Klebsiella, Enterobacter, Serratia, Pseudomonas, and Acinetobacter). Bacterial inocula were prepared in Mueller Hinton broth (MH2, bioMerieux, Marcy L'Etoile, France), supplemented with 10% sheep blood for fastidious species (i.e., Streptococcus pneumoniae and Haemophilus influenzae). They were dispensed in 96 well microtiter plates (5×10^5 CFU/ml of final inoculum). Indolic compounds were added to the wells as to obtain two-fold serial concentrations (0.50-128 mg/L of final concentrations). Plates were incubated at 37° C. in ambient air, or at 37° C. in 5% CO2 enriched atmosphere for fastidious species. […] Drug-free cultures served as growth controls. Cultures receiving gentamicin, ciprofloxacin or cefotaxime served as positive controls.
(In general: Dilution methods test growth across graded concentrations, often in twofold steps.)

In a further experiment the test system is S. epidermidis CIP 81.55. In words: MIC microdilution (Table I-1). The conditions noted are these: read after 18 hours. It counts as cell-based, Staphylococcus epidermidis. How it is done: as §1
Experiment [2] has as its system S. epidermidis ATCC 12228. In words: MIC microdilution (Table I-1). The class given is cell-based, Staphylococcus epidermidis. The conditions noted are these: read after 18 hours. Here is the method:
as §1

In experiment [3] the test system is S. pyogenes (group A) CIP 104226. As to the kind of experiment: MIC microdilution (Table I-1). It counts as cell-based. As to conditions: read after 18 hours. Here is the method:
as §1

For experiment [4], the system named is Klebsiella pneumoniae ATCC 35657. As to the kind of experiment: MIC microdilution (Table I-1). It counts as cell-based. As to conditions: read after 18 hours. Here is the method: as §1
Experiment [5] relates to Listeria innocua CIP 80.11. In words: MIC microdilution (Table I-1). The class given is cell-based. As to conditions: read after 18 hours. Here is the method: as §1
In experiment [6] the test system is Bacillus subtilis CIP 5262. As to the kind of experiment: MIC microdilution (Table I-1). The class given is cell-based. As to conditions: read after 18 hours. How it is done:
as §1

The subject of a further experiment is S. mitis CIP 103335. As to the kind of experiment: MIC microdilution (Table I-1). The class given is cell-based. As to conditions: read after 18 hours. Here is the method: as §1
The next experiment has as its system E. faecalis ATCC 29212. In words: MIC microdilution (Table I-1). The class given is cell-based. As to conditions: read after 18 hours. Here is the method:
as §1

The next experiment has as its system E. faecium CIP 54.32. In words: MIC microdilution (Table I-1). The class given is cell-based. As to conditions: read after 18 hours. Here is the method: as §1
Experiment [7] concerns S. agalactiae (group B) ATCC 12400. As to the kind of experiment: MIC microdilution (Table I-1). The class given is cell-based. The conditions noted are these: read after 18 hours. How it is done: as §1
In experiment [8] the test system is 29 bacterial strains belonging to 17 different species. In words: Intrinsic antibacterial activity, MIC on the bacterial panel. It counts as cell-based. The conditions noted are these: result in words. Here is the method:
as §1

The test system of a further experiment is S. aureus SA-1199B. In words: MIC microdilution (Table I-1). The class given is cell-based, Staphylococcus aureus. As to conditions: S. aureus SA-1199B; read after 18 hours. Here is the method:
as §1

In a further experiment the test system is S. aureus ATCC 29213. In words: MIC microdilution (Table I-1). It counts as cell-based, Staphylococcus aureus. The conditions noted are these: read after 18 hours. How it is done: as §1
Another experiment relates to S. aureus CIP 65.6. As to the kind of experiment: MIC microdilution (Table I-1). The class given is cell-based, Staphylococcus aureus. The conditions noted are these: read after 18 hours. Here is the method: as §1
A further experiment has as its system S. aureus ATCC 9144. In words: MIC microdilution (Table I-1). It counts as cell-based, Staphylococcus aureus. As to conditions: read after 18 hours. How it is done:
as §1

The subject of experiment [9] is S. aureus CIP 65.25 (MRSA). In words: MIC microdilution (Table I-1). The conditions noted are these: read after 18 hours. It counts as cell-based, Staphylococcus aureus. Here is the method: as §1
In another experiment the test system is S. aureus CIP 103428. In words: MIC microdilution (Table I-1). The class given is cell-based, Staphylococcus aureus. The conditions noted are these: read after 18 hours. Here is the method: as §1
The test system of experiment [10] is S. aureus ATCC 33592 (MRSA). As to the kind of experiment: MIC microdilution (Table I-1). The conditions noted are these: read after 18 hours. It counts as cell-based, Staphylococcus aureus. Here is the method: as §1
The subject of experiment [11] is S. aureus ATCC 106414 (VISA). As to the kind of experiment: MIC microdilution (Table I-1). It counts as cell-based, Staphylococcus aureus. As to conditions: read after 18 hours. Here is the method: as §1
Another experiment has as its system S. aureus ATCC 6538. As to the kind of experiment: MIC microdilution (Table I-1). It counts as cell-based, Staphylococcus aureus. The conditions noted are these: read after 18 hours. How it is done:
as §1

The test system of another experiment is S. pneumoniae ATCC 6303. As to the kind of experiment: MIC microdilution (Table I-1). It counts as cell-based, Streptococcus pneumoniae. The conditions noted are these: read after 18 hours. How it is done:
as §1

Experiment [12] relates to MRC5 (human lung fibroblast). In words: In vitro cytotoxicity. It counts as cell-based. As to conditions: MRC5, read-out: % of cellular growth inhibition. Here is the method:
(§2) In vitro cytotoxicity was assayed on three cell lines—KB (human mouth carcinoma), MCR5 (human lung fibroblast) and HCT116 (human colon tumor). Results are presented in table III as % of cellular growth inhibition in presence of 10^−5 M and 10^−6 M of the tested bis-indolic derivatives.

Experiment [13] deals with KB (human mouth carcinoma). In words: In vitro cytotoxicity. As to conditions: read-out: % of cellular growth inhibition. It counts as cell-based. How it is done:
as §2

Experiment [14] concerns HCT116 (human colon tumor). In words: In vitro cytotoxicity. It counts as cell-based. The conditions noted are these: HCT-116, read-out: % of cellular growth inhibition. How it is done:
as §2

Where a name gives a salt, the structure may show the parent alone.

As for “tert-Butyl(2-(4-bromo)benzamido-2-(5-bromo-1H-indol-3-yl)ethyl)carbamate [Compound 12a]”, the MIC in experiment [1] was above 32 mg/L; with S. epidermidis CIP 81.55 it was above 32 mg/L; in [2] it was above 32 mg/L; in experiment [3], above 128 mg/L; in experiment [4], 64 mg/L; in [5], above 128 mg/L. For the same compound, the MIC is on record as above 128 mg/L in experiment [6]; above 128 mg/L with S. mitis CIP 103335; above 128 mg/L against E. faecalis ATCC 29212; above 128 mg/L against E. faecium CIP 54.32; 64 mg/L in experiment [7]; above 32 mg/L in the experiment with S. aureus SA-1199B. In addition, the MIC (in the experiment with S. aureus ATCC 29213; against S. aureus CIP 65.6; in the experiment on S. aureus ATCC 9144; in experiment [9]; against S. aureus CIP 103428; in [10]) was above 32 mg/L in each case. Also, the MIC in [11] is on record as above 32 mg/L; with S. aureus ATCC 6538 it was above 32 mg/L; against S. pneumoniae ATCC 6303, 128 mg/L. For the same compound, in experiment [8], the intrinsic antibacterial activity result was “lack of intrinsic antibacterial activity”.
Take `O=C(C(=O)N1CCNCC1c1c[nH]c2ccc(Br)cc12)c1c[nH]c2ccc(Br)cc12` (stereo not shown) [Compound 7, 1-(5-bromo-1H-indol-3-yl)-2-(2-(5-bromo-1H-indol-3-yl)piperazin-1-yl)ethane-1,2-dione hydrochloride]: the inhibition at 1 µM in experiment [12], in experiment [13] and in [14] was 0% in each case. Further, the inhibition at 10 µM in experiment [12] is 0%; in [13] it was 4 ± 11%; in [14], 22 ± 7%.

As a reminder, the MIC is the lowest concentration that inhibits growth of the organism. High values mean weaker potency, low ones greater potency. A word on the inhibition: it is the share of the control response that was lost under treatment.
